The results in this text go back to patent US20130302888A1, “CELL CULTURE METHOD AND SYSTEM FOR ESTABLISHING AN IN VITRO MODEL OF THE INTESTINAL BARRIER” (GATTEFOSSE SAS, priority 2011, published 2013).

In one series the test system is HT29-MTX monolayers. Particulars: pH 7.4.
In series [1] the test system is Caco-2/HT29-MTX cocultures.

As for Lucifer yellow [LY], the Papp with HT29-MTX monolayers is 2-3 10^−6 cm/s. The “Papp, effect of adding HT29-MTX to Caco-2 cells” value in series [1] is on record as “drastically increases the Papp”.
